According to ChEMBL document CHEMBL4014283, “Structural insights of SmKDAC8 inhibitors: Targeting Schistosoma epigenetics through a combined structure-based 3D QSAR, in vitro and synthesis strategy” (Bioorg Med Chem, 2017):
Calls of active or inactive are those of the source. No cut-off for these calls is given here.

Columns and labels:
Histone deacetylase 1 = Histone deacetylase 1 (Homo sapiens, UniProt Q13547); assay: Inhibition of full length human C-terminal FLAG/His-tagged KDAC1 expressed in baculovirus expression system at 30 uM using substrate A after 60 mins by microfluidic assay relative to control; settings: 1 h, 30 µM
Sequence of Histone deacetylase 1 (Q13547 whole entry, the tested form may be a part): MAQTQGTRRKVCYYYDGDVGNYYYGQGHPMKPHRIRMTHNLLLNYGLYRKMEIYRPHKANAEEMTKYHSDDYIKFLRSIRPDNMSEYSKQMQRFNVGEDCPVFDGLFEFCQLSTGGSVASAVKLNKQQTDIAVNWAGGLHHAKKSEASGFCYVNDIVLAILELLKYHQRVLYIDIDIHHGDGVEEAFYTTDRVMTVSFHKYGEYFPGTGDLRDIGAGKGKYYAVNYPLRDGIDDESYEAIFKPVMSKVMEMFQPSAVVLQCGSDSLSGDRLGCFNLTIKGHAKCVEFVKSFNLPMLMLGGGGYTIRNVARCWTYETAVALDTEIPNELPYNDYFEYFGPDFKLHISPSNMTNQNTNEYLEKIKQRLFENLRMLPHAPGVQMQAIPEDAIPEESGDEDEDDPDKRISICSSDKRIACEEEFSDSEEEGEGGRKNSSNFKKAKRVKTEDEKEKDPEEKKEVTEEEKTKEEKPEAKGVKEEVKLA

[1] = molecular target: Histone deacetylase 3/Nuclear receptor corepressor 2 (HDAC3/NCoR2) (Homo sapiens, UniProt O15379+Q9Y618); assay: (§1) Inhibition of full length human C-terminal His-tagged KDAC3/N-terminal GST-tagged human NCOR2 (395 to 489 residues) expressed in baculovirus expression system at 30 uM using FITC-p53 acetylated peptide as substrate after 60 mins by microfluidic assay; settings: 1 h, 30 µM
Sequence of Histone deacetylase 3/Nuclear receptor corepressor 2 (HDAC3/NCoR2) (O15379 whole entry, the tested form may be a part): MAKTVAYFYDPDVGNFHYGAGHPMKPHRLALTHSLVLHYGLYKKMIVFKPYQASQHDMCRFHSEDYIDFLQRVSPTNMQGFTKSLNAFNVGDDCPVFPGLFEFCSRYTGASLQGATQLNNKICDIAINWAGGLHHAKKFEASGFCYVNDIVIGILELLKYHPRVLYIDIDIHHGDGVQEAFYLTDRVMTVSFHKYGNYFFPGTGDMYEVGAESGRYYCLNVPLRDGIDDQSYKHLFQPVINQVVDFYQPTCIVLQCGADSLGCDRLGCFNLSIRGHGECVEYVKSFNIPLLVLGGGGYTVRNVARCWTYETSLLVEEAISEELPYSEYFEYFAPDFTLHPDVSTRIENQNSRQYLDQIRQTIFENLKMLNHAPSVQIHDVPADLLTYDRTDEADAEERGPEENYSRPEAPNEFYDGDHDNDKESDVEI
Sequence of Histone deacetylase 3/Nuclear receptor corepressor 2 (HDAC3/NCoR2) (Q9Y618 whole entry, the tested form may be a part): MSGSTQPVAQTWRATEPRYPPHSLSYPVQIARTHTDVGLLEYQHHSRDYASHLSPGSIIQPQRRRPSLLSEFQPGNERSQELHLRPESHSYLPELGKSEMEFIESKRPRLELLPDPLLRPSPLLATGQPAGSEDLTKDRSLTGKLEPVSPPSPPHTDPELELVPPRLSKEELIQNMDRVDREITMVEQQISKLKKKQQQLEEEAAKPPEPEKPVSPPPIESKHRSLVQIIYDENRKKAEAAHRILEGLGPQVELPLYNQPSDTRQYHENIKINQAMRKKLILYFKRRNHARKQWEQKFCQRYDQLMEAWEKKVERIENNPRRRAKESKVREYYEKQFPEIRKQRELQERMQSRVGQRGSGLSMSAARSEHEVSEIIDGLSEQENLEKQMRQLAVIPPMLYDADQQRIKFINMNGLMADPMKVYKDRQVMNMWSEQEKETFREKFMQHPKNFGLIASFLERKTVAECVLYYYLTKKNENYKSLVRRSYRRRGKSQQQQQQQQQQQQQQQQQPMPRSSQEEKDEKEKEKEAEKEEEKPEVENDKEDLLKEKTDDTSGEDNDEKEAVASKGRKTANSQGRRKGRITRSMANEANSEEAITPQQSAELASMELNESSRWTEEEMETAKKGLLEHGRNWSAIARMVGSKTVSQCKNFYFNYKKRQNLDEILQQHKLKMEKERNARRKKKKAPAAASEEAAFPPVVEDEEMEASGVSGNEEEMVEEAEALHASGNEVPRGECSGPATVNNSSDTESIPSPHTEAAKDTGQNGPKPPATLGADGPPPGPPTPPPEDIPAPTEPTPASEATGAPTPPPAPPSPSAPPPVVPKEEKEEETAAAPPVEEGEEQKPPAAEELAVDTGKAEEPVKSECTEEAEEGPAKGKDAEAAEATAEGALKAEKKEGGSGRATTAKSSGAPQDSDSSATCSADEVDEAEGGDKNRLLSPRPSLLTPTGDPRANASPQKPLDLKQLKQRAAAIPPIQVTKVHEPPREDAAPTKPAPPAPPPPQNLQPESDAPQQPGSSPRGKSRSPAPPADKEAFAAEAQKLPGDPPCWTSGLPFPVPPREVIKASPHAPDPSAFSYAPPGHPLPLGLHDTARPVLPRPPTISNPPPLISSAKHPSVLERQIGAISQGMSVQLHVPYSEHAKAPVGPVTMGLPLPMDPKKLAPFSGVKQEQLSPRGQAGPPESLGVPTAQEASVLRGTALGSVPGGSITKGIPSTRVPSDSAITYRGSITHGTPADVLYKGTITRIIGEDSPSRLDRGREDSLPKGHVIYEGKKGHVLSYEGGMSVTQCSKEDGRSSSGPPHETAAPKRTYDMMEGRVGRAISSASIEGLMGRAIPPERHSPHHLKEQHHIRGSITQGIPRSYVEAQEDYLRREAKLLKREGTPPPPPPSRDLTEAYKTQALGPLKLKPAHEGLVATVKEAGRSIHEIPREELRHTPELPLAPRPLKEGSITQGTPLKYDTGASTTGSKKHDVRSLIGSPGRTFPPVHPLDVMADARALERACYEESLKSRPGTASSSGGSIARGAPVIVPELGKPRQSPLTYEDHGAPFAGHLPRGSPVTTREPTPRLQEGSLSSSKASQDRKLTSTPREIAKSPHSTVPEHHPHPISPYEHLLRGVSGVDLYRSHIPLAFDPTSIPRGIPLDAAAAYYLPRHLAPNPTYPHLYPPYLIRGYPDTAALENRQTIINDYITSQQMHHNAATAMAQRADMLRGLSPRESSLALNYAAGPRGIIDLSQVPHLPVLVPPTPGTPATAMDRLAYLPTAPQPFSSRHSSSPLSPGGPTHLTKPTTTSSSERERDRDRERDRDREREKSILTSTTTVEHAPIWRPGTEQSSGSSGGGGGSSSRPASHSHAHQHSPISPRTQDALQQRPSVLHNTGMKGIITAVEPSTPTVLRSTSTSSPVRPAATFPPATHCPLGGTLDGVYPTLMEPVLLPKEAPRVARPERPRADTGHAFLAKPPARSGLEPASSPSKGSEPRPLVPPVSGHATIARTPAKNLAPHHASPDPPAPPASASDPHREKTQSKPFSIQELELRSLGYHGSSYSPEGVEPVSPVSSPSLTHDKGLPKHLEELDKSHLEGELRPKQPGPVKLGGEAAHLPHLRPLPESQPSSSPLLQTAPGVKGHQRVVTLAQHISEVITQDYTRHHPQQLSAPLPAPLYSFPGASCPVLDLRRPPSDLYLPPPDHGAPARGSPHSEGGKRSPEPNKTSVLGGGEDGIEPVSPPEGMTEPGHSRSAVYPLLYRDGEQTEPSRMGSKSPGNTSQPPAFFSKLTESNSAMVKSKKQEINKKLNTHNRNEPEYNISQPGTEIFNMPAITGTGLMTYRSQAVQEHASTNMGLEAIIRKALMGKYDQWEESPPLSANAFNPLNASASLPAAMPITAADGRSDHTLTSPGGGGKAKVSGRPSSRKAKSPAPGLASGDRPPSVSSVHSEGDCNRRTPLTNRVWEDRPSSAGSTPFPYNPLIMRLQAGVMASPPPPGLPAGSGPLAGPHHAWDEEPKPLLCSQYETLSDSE

[2] = molecular target: T1, Protein deacetylase HDAC6 (Homo sapiens, UniProt Q9UBN7); assay: Inhibition of human KDAC6 expressed in baculovirus expression system at 30 uM using FITC-Histone 4 acetylated peptide as substrate after 60 mins by microfluidic assay; settings: 1 h, 30 µM
T1 sequence (Q9UBN7 whole entry): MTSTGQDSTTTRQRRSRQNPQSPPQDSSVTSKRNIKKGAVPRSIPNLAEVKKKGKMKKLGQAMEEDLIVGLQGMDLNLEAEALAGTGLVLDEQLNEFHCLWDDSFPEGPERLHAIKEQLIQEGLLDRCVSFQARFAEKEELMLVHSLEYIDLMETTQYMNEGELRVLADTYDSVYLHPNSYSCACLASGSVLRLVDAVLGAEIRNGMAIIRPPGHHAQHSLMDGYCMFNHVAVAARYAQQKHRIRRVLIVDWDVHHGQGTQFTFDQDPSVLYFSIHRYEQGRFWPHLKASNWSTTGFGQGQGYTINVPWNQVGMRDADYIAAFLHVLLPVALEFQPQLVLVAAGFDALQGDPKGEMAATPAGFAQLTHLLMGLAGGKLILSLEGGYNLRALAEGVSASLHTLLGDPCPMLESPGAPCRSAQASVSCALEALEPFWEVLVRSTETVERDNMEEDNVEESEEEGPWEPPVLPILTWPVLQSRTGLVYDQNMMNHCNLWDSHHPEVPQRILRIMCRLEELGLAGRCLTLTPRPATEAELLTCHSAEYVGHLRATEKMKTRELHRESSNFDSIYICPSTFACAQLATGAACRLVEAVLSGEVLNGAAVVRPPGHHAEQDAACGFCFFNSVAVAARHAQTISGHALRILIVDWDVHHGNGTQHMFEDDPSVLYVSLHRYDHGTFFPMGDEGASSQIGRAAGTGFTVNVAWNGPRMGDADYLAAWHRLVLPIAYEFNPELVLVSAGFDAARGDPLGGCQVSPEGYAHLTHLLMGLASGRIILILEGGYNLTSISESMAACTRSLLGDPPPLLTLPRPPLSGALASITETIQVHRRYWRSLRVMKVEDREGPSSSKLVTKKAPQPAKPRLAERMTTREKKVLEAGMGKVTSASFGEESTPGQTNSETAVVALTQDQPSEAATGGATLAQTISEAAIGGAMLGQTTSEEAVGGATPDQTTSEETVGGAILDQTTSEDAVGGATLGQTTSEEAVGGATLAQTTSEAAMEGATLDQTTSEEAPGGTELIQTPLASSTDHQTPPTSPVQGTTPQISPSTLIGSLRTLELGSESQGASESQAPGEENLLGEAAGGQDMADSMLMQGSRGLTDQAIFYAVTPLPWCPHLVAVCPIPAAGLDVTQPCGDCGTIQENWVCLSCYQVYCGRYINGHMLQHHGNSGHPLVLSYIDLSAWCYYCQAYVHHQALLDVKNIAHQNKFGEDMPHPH

[3] = molecular target: T2, KDAC8 (histone deacetylase 8) (Homo sapiens, UniProt Q9BY41); assay: (§2) Inhibition of full length human C-terminal His-tagged KDAC8 expressed in baculovirus expression system at 30 uM using (FAM)-labeled peptide as substrate after 60 mins by microfluidic assay relative to control; settings: probe (FAM)-labeled peptide
T2 sequence (Q9BY41 whole entry): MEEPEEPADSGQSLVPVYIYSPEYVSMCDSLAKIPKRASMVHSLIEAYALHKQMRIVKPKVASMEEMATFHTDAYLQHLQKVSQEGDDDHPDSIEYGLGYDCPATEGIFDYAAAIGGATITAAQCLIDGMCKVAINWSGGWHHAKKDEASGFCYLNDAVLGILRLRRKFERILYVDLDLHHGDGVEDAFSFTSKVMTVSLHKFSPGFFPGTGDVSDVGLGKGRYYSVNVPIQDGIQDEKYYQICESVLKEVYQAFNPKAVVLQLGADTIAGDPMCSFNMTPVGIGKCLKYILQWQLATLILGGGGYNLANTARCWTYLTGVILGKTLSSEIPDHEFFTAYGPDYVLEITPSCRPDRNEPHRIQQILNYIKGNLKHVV

[4] = molecular target: T3, Histone deacetylase 8 (Schistosoma mansoni) (UniProt A5H660); assay: Inhibition of Schistosoma mansoni KDAC8 at 30 uM using (FAM)-labeled peptide as substrate after 60 mins by microfluidic assay
T3 sequence (whole entry): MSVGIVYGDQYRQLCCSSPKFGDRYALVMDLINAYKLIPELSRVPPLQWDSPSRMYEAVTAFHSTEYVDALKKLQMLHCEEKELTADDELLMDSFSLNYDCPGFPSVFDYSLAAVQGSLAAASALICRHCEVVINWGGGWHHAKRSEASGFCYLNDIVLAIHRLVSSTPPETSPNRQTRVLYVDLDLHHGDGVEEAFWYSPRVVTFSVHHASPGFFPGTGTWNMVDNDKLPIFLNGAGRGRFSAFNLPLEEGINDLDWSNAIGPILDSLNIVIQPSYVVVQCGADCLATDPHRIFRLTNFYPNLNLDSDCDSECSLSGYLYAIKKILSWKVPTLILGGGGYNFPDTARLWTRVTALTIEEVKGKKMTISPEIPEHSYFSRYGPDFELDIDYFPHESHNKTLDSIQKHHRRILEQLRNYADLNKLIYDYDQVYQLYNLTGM

[5] = molecular target: KDAC3/NCOR2 (histone deacetylase 3/nuclear receptor corepressor 2 complex) (Homo sapiens, UniProt O15379); assay: as §1; settings: probe FITC-p53 acetylated peptide
Sequence of KDAC3/NCOR2 (histone deacetylase 3/nuclear receptor corepressor 2 complex) (O15379 whole entry): as the sequence (O15379 whole entry, the tested form may be a part) above
Sequence of KDAC3/NCOR2 (histone deacetylase 3/nuclear receptor corepressor 2 complex) (Q9Y618 whole entry, further chain): as the sequence (Q9Y618 whole entry, the tested form may be a part) above

Histone deacetylase 8 [6] = molecular target: T4, Histone deacetylase 8 (Homo sapiens, UniProt Q9BY41); assay: as §2; settings: 1 h, 30 µM
T4 sequence (Q9BY41 whole entry): T2 sequence (Q9BY41 whole entry)

Histone deacetylase 8 [7] = molecular target: T5, Histone deacetylase 8 (Schistosoma mansoni, UniProt A5H660); assay: Inhibition of Schistosoma mansoni KDAC8 using (FAM)-labeled peptide as substrate after 60 mins by microfluidic assay; settings: read-out: IC50
T5 sequence (A5H660 whole entry): T3 sequence (whole entry)

| Compound | inhibition (INH) (Histone deacetylase 1) | inhibition (INH) [1] | inhibition (INH) [2] | inhibition at 1 h, 30 µM [3] | inhibition [4] | inhibition at 1 h, 30 µM [5] | inhibition (INH) (Histone deacetylase 8 [6]) | IC50 (Histone deacetylase 8 [7]) |
| --- | --- | --- | --- | --- | --- | --- | --- | --- |
| Cc1cc(C)n(C(=N)NC(=O)c2ccc([N+](=O)[O-])cc2)n1 | Not Active | Not Active | Not Active | 4% | 2% |  |  |  |
| O=C(NCc1ccco1)Nc1cccc([N+](=O)[O-])c1 | Not Active |  | Not Active | 7% | 16% | 7% |  |  |
| Cc1cc(NC(=O)Nc2cc(F)ccc2F)no1 | Not Active | Not Active | Not Active |  | inactive |  | Not Active |  |
| NS(=O)(=O)c1ccc(Nc2ccccc2)c([N+](=O)[O-])c1 | Not Active |  | Not Active |  | 12% | 1% | Not Active |  |
| O=C(O)c1ccccc1C(=O)Nc1ccccc1[N+](=O)[O-] | Not Active | Not Active | Not Active |  | 6% |  | Not Active |  |
| NC(=O)c1ccccc1OCC(=O)Nc1ccc(Cl)c(Cl)c1 | Not Active |  | Not Active |  | 2% | 6% | Not Active |  |
| Clc1ccc(Nc2nnc(-c3ccc4c(c3)OCO4)o2)cc1 | Not Active | Not Active | Not Active |  | 10% |  | Not Active |  |
| O=C1c2ccccc2C2=C3C(O)=NN=C3CCN12 | Not Active |  | Not Active | 5% | inactive | 1% |  |  |
| CCOP(=O)(OCC)/C(C#N)=C/c1ccc([N+](=O)[O-])cc1 | Not Active | Not Active | Not Active |  | 2% |  | Not Active |  |
| CC(=O)OCCn1c([N+](=O)[O-])cnc1/C=[N+](\[O-])C1CCCCC1 | Not Active | Not Active | Not Active |  | 12% |  | Not Active |  |
| CC(C)(C)OC(=O)CC[C@H]1N=C(c2ccccc2)c2ccccc2NC1=O |  |  |  |  | 12.3% |  |  | > 30 µM |
| CC(C)C[C@@H]1N=C(c2ccccc2)c2ccccc2N(CCCCC(=O)NO)C1=O |  |  |  |  | 23.1% |  |  | > 30 µM |
| COC(=O)CCCCN1C(=O)[C@H](CCC(=O)NC(c2ccccc2)(c2ccccc2)c2ccccc2)N=C(c2ccccc2)c2ccccc21 |  |  |  |  | 0% |  |  | > 30 µM |
| COC(=O)CCCCN1C(=O)[C@H](Cc2cncn2C(c2ccccc2)(c2ccccc2)c2ccccc2)N=C(c2ccccc2)c2ccccc21 |  |  |  |  | 2.5% |  |  | > 30 µM |
